pKi: −log10 of the molar value. Non-standard residues stand in square brackets, D forms with d. Residues, ends and D or L forms follow the SMILES beside them. Ac5c = NC1(C(=O)O)CCCC1; Ahx = NCCCCCC(=O)O; Sar = CNCC(=O)O

In this test the target is Furin (Homo sapiens, UniProt P09958).
Chain of Furin (P09958 whole entry): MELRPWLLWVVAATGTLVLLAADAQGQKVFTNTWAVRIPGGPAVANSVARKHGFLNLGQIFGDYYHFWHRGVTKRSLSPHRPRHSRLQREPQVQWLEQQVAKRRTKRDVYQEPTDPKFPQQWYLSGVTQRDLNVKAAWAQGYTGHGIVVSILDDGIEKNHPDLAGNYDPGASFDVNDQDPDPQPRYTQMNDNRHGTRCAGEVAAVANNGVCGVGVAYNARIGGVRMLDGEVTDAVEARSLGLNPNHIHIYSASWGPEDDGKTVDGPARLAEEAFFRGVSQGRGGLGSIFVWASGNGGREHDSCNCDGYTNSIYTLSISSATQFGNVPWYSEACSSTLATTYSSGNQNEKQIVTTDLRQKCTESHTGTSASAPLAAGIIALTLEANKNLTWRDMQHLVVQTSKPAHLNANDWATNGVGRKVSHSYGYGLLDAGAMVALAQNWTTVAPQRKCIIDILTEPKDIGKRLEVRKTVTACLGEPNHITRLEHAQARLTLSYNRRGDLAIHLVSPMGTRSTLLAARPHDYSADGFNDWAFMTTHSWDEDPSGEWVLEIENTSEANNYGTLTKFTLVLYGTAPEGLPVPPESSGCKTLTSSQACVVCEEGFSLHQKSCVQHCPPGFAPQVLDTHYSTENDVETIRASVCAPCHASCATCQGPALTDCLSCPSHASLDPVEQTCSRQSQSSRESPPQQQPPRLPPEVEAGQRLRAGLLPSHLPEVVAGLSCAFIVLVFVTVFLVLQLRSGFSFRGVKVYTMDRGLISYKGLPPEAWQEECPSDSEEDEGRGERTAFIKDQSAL
For orientation: pKi means the Ki on a negative log10 scale, so that one unit is a factor of ten. `C[C@H](NC(=O)[C@H](CCCNC(=N)N)NC(=O)[C@H](CCC(N)=O)NC(=O)[C@@H]1CCCN1C(=O)[C@@H](N)[C@@H](C)O)C(=O)N[C@@H](CCCNC(=N)N)C(=O)N[C@@H](CCCNC(=N)N)C(=O)N[C@@H](CCCNC(=N)N)C(=O)N[C@@H](CCCCN)C(=O)N[C@@H](CCCCN)C(=O)N[C@@H](CCCNC(=N)N)C(=O)NC1(C(=O)O)CCCC1` (H-TPQRARRRKKR[Ac5c]-OH) showed a pKi of less than 7.00.

Consider `C[C@@H](O)[C@H](N)C(=O)N1CCC[C@H]1C(=O)N[C@@H](CCCNC(=N)N)C(=O)N[C@H](CCC(=O)O)C(=O)N[C@@H](CCCNC(=N)N)C(=O)N[C@@H](CCCNC(=N)N)C(=O)N[C@@H](CCCNC(=N)N)C(=O)N[C@@H](CCCCN)C(=O)N[C@@H](CCCCN)C(=O)N[C@@H](CCCNC(=N)N)C(=O)NCC(=O)O`, for which the pKi was less than 7.00.

With H-TPRARRRKKRE-NH2, the pKi is less than 7.00.

For the compound H-TPRHRRRKKRG-NH2, the pKi was less than 7.00.

H-TPRLRRRKKRG-OH had a pKi of less than 7.00.

As to `C[C@H](NC(=O)[C@H](C)NC(=O)[C@H](CCC(=O)O)NC(=O)[C@H](CCCN=C(N)N)NC(=O)[C@@H]1CCCN1C(=O)[C@@H](N)[C@@H](C)O)C(=O)N[C@@H](CCCN=C(N)N)C(=O)N[C@@H](CCCCN)C(=O)N[C@@H](CCCCN)C(=O)N[C@@H](CCCN=C(N)N)C(=O)N(C)CC(=O)O` (H-TPREAARKKR[Sar]-OH), the pKi is less than 7.00.

In turn, H-TPRERAAKKR-OH showed a pKi of less than 7.00.

As for H-TPRARRRKKRA-NH2, the pKi is less than 7.00.

In turn, H-TPRERRAAKR-OH had a pKi of less than 7.00.

`C[C@@H](O)[C@H](N)C(=O)N1CCC[C@H]1C(=O)N[C@@H](CCCNC(=N)N)C(=O)NCCC(=O)N[C@@H](CCCNC(=N)N)C(=O)N[C@@H](CCCNC(=N)N)C(=O)N[C@@H](CCCNC(=N)N)C(=O)N[C@@H](CCCCN)C(=O)N[C@@H](CCCCN)C(=O)N[C@@H](CCCNC(=N)N)C(=O)NCC(N)=O`: the pKi is less than 7.00.

H-TPRERRRKKRV-OH had a pKi of less than 7.00.

The compound H-TPRPRRRKKRG-OH gave a pKi of less than 7.00.

In turn, H-TPRERRRKKAG-NH2 gave a pKi of less than 7.00.

Regarding H-TPRERRAKKRV-OH, the pKi was less than 7.00.

Compound H-TPQRIRRRKKRG-OH gave a pKi of less than 7.00.

H-AARERRRKKRV-OH had a pKi of less than 7.00.

In turn, `C[C@H](NC(=O)[C@H](CCCN=C(N)N)NC(=O)[C@H](CCC(N)=O)NC(=O)[C@@H]1CCCN1C(=O)[C@@H](N)[C@@H](C)O)C(=O)N[C@@H](CCCN=C(N)N)C(=O)N[C@@H](CCCN=C(N)N)C(=O)N[C@@H](CCCN=C(N)N)C(=O)N[C@@H](CCCCN)C(=O)N[C@@H](CCCCN)C(=O)N[C@@H](CCCN=C(N)N)C(=O)NCC(=O)O` gave a pKi of less than 7.00.

In the case of `CC(C)C[C@H](NC(=O)[C@H](CCCNC(=N)N)NC(=O)[C@H](CCCCN)NC(=O)[C@H](CCCCN)NC(=O)[C@H](CCCNC(=N)N)NC(=O)[C@H](CCCNC(=N)N)NC(=O)[C@H](CCCNC(=N)N)NC(=O)[C@H](C)NC(=O)[C@H](CCCNC(=N)N)NC(=O)[C@@H]1CCCN1C(=O)[C@@H](N)[C@@H](C)O)C(N)=O`, the pKi was less than 7.00.

`C[C@@H](O)[C@H](N)C(=O)N1CCC[C@H]1C(=O)N[C@@H](CCC(N)=O)C(=O)N[C@@H](CCCN=C(N)N)C(=O)N[C@H](CCCCN)C(=O)N[C@@H](CCCN=C(N)N)C(=O)N[C@@H](CCCN=C(N)N)C(=O)N[C@@H](CCCN=C(N)N)C(=O)N[C@@H](CCCCN)C(=O)N[C@@H](CCCCN)C(=O)N[C@@H](CCCNC(=N)N)C(=O)NCC(=O)O`: the pKi is less than 7.00.

With H-TPRERAAKKRG-OH, the negative logarithm of the Ki (pKi) was less than 7.00.

Regarding H-AAAERRRKKR-OH, the pKi was less than 7.00.

As to H-GGGTPRARRRKKRT-OH, the pKi was 7.41.

With H-TAAERRRKKR-OH, the pKi was less than 7.00.

`C[C@@H](O)[C@H](N)C(=O)N1CCC[C@H]1C(=O)N[C@@H](CCC(N)=O)C(=O)N[C@@H](CCCN=C(N)N)C(=O)N[C@@H](CCCN=C(N)N)C(=O)N[C@@H](CCCN=C(N)N)C(=O)N[C@@H](CCCN=C(N)N)C(=O)N[C@@H](CCCN=C(N)N)C(=O)N[C@@H](CCCCN)C(=O)N[C@@H](CCCCN)C(=O)N[C@@H](CCCNC(=N)N)C(=O)NCC(=O)O` had a pKi of less than 7.00.

In turn, H-TPRRRRRKKRG-NH2 gave a pKi of less than 7.00.

The compound `C[C@@H](O)[C@H](N)C(=O)N1CCC[C@H]1C(=O)N[C@@H](CCCNC(=N)N)C(=O)NCCCCCC(=O)N[C@@H](CCCNC(=N)N)C(=O)N[C@@H](CCCNC(=N)N)C(=O)N[C@@H](CCCNC(=N)N)C(=O)N[C@@H](CCCCN)C(=O)N[C@@H](CCCCN)C(=O)N[C@@H](CCCNC(=N)N)C(=O)NCC(=O)O` showed a pKi of less than 7.00.

`C[C@@H](O)[C@H](N)C(=O)N1CCC[C@H]1C(=O)N[C@@H](CCCNC(=N)N)C(=O)NCCC(=O)N[C@@H](CCCNC(=N)N)C(=O)N[C@@H](CCCNC(=N)N)C(=O)N[C@@H](CCCNC(=N)N)C(=O)N[C@@H](CCCCN)C(=O)N[C@@H](CCCCN)C(=O)N[C@@H](CCCNC(=N)N)C(=O)NCC(=O)O` showed a pKi of less than 7.00.

`CCCC[C@H](NC(=O)[C@H](CCCNC(=N)N)NC(=O)[C@H](CCC(N)=O)NC(=O)[C@@H]1CCCN1C(=O)[C@@H](N)[C@@H](C)O)C(=O)N[C@@H](CCCNC(=N)N)C(=O)N[C@@H](CCCNC(=N)N)C(=O)N[C@@H](CCCNC(=N)N)C(=O)N[C@@H](CCCCN)C(=O)N[C@@H](CCCCN)C(=O)N[C@@H](CCCNC(=N)N)C(=O)NCC(=O)O`: the pKi was less than 7.00.

Take H-TPAERRRKKRG-OH: the pKi is less than 7.00.

`C[C@H](NC(=O)[C@H](CCCNC(=N)N)NC(=O)[C@H](CCC(N)=O)NC(=O)[C@@H]1CCCN1C(=O)[C@@H](N)[C@@H](C)O)C(=O)N[C@@H](CCCNC(=N)N)C(=O)N[C@@H](CCCNC(=N)N)C(=O)N[C@@H](CCCNC(=N)N)C(=O)N[C@@H](CCCCN)C(=O)N[C@@H](CCCCN)C(=O)N[C@@H](CCCNC(=N)N)C(=O)NCCCCCC(=O)O` (H-TPQRARRRKKR[Ahx]-OH) showed a pKi of less than 7.00.

With H-TPRERRRKARG-OH, the pKi is less than 7.00.

As for H-TPQRTRRRKKRG-OH, the pKi is less than 7.00.

In turn, H-TPRERARKKRV-OH had a pKi of less than 7.00.

In turn, H-TPRARRRKKRV-OH gave a pKi of 7.10.

Consider `C[C@H](NC(=O)[C@H](CCC(=O)O)NC(=O)[C@H](CCCNC(=N)N)NC(=O)[C@@H]1CCCN1C(=O)[C@@H](N)[C@@H](C)O)C(=O)N[C@@H](CCCNC(=N)N)C(=O)N[C@@H](CCCNC(=N)N)C(=O)N[C@@H](CCCCN)C(=O)N[C@@H](CCCCN)C(=O)N[C@@H](CCCNC(=N)N)C(=O)N(C)CC(=O)O` (H-TPREARRKKR[Sar]-OH), for which the pKi is less than 7.00.

`C[C@H](NC(=O)[C@H](CCCNC(=N)N)NC(=O)[C@@H]1CCCN1C(=O)[C@@H](N)[C@@H](C)O)C(=O)N[C@@H](CCCNC(=N)N)C(=O)N[C@@H](CCCNC(=N)N)C(=O)N[C@@H](CCCNC(=N)N)C(=O)N[C@@H](CCCCN)C(=O)N[C@@H](CCCCN)C(=O)N[C@@H](CCCNC(=N)N)C(=O)N[C@@H](CS)C(=O)O` had a pKi of less than 7.00.

Compound H-TPQRWRRRKKRG-OH had a pKi of less than 7.00.

As to `C[C@@H](O)[C@H](N)C(=O)N1CCC[C@H]1C(=O)N[C@@H](CCC(N)=O)C(=O)N[C@@H](CCCN=C(N)N)C(=O)N[C@@H](CC1CCCCC1)C(=O)N[C@@H](CCCN=C(N)N)C(=O)N[C@@H](CCCN=C(N)N)C(=O)N[C@@H](CCCN=C(N)N)C(=O)N[C@@H](CCCCN)C(=O)N[C@@H](CCCCN)C(=O)N[C@@H](CCCNC(=N)N)C(=O)NCC(=O)O`, the pKi was less than 7.00.
